How the values were obtained:
Assay in all cases: IA-DTB cysteine engagement
Format in all cases: binding
Conditions in all cases: 22Rv1 cells, 20 μM probe, 1 h, relative to DMSO
CCNE2_C109 = molecular target: T1, CCNE2_C109 (Homo sapiens, UniProt O96020)
T1 construct: endogenous in cells; host or cells: 22Rv1
In short: (§1)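 Competitive chemoproteomics: residual cysteine reactivity toward IA-DTB in lysates from probe-treated cells was quantified by TMT reporter ions relative to DMSO-treated controls. Replicates sharing cell line, probe, concentration and duration were averaged.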

HSDL1_C265 = molecular target: T2, HSDL1_C265 (Homo sapiens, UniProt Q3SXM5)
T2 construct: endogenous in cells; host or cells: 22Rv1
T2 sequence (Q3SXM5 1-330): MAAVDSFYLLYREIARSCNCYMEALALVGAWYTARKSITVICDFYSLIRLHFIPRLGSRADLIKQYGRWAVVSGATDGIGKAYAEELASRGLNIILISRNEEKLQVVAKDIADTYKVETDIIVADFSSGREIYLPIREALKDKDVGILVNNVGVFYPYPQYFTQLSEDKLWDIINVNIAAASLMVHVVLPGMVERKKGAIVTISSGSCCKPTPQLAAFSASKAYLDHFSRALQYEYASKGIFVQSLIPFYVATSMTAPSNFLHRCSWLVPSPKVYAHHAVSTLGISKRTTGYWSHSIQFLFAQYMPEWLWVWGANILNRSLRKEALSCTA
In short: as §1

TRPM4_C758 = molecular target: T3, TRPM4_C758 (Homo sapiens, UniProt Q8TD43)
T3 construct: endogenous in cells; host or cells: 22Rv1
T3 sequence (Q8TD43 whole entry): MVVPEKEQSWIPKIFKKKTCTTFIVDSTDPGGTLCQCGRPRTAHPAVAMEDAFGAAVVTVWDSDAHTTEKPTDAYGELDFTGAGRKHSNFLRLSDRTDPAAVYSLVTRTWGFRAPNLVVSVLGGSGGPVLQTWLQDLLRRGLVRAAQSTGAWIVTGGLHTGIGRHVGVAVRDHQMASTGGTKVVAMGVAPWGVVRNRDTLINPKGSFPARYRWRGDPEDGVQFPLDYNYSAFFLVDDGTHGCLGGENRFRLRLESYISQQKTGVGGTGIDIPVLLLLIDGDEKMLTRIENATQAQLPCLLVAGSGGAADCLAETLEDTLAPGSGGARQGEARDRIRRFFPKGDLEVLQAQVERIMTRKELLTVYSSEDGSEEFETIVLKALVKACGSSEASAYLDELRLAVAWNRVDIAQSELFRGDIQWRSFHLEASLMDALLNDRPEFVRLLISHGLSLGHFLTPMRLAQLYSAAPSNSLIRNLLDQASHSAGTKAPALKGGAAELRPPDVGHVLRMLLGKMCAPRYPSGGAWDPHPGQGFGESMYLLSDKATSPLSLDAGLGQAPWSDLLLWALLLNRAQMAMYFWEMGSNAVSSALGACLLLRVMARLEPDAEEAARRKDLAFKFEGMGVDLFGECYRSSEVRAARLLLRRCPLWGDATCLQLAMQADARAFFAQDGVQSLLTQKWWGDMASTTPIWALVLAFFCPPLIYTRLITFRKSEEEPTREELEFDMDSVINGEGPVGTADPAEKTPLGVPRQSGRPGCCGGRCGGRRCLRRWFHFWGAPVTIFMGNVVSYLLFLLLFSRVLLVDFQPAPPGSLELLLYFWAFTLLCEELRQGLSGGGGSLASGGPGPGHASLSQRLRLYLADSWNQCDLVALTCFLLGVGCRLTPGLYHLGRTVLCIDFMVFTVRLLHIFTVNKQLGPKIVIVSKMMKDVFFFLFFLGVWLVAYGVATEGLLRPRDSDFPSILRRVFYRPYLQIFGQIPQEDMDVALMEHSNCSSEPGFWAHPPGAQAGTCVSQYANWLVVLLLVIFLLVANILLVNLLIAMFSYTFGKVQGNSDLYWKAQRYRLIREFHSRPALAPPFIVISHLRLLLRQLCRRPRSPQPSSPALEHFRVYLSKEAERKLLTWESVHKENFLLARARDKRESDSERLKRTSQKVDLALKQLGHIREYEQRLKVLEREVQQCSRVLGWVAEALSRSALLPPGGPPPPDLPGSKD
In short: as §1

T1 sequence (O96020 whole entry): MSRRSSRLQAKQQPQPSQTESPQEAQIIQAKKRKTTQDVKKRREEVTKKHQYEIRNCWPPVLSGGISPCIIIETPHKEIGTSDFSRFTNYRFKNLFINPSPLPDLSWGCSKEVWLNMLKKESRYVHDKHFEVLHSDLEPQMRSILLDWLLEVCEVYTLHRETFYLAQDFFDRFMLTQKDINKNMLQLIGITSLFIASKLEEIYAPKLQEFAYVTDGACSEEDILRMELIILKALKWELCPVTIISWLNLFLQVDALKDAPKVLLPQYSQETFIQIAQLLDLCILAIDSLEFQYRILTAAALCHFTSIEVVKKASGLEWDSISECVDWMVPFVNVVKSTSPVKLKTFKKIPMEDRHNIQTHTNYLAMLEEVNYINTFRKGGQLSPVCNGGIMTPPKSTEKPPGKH

% engagement CCNE2_C109 (CCNE2_C109) [%] | % engagement HSDL1_C265 (HSDL1_C265) [%] | SMILES | % engagement TRPM4_C758 (TRPM4_C758) [%]
42.75 | 82 | C=CC(=O)N1C[C@H](c2ccc(Br)cc2)[C@H]1C(=O)Nc1cccc2cccnc12 [MY-3B, (2S,3S)-1-acryloyl-3-(4-bromophenyl)-N-(quinolin-8-yl)azetidine-2-carboxamide] | 73.5
76.75 | 54 | C=CC(=O)N1C[C@H](c2ccc(Br)cc2)[C@@H]1C(=O)Nc1cccc2cccnc12 [MY-1B, (2R,3S)-1-acryloyl-3-(4-bromophenyl)-N-(quinolin-8-yl)azetidine-2-carboxamide] | 54.5
21.75 | 64.25 | C=CC(=O)N1C[C@H](c2ccc(Br)cc2)[C@H]1C(=O)Nc1cccc2cccnc12 [MY-3A, (2S,3S)-1-acryloyl-3-(4-bromophenyl)-N-(quinolin-8-yl)azetidine-2-carboxamide] | 29.5
77 | 52 | C=CC(=O)N1C[C@@H](c2ccc(Br)cc2)[C@H]1C(=O)Nc1cccc2cccnc12 [MY-1A, (2S,3R)-1-acryloyl-3-(4-bromophenyl)-N-(quinolin-8-yl)azetidine-2-carboxamide] | 40.5

Reference: patent US20250034216A1, “STEREOSELECTIVE COVALENT LIGANDS FOR ONCOGENIC AND IMMUNOLOGICAL PROTEINS” (The Scripps Research Institute, priority 2021, published 2025)
